pKi: −log10 of the molar value.
Each compound was assayed against T1, human histamine H3 receptor (Homo sapiens, UniProt Q9Y5N1) (assay: [3H]-N-methylhistamine binding). Conditions: Table 1; [3H]-N-methylhistamine binding.
T1 construct: One microgram of supercoiled H3 receptor cDNA was added to the cells and mixed; expressed in transfected cells; membranes
Protocol: Thus in the present invention receptor binding was determined using the human histamine H3 receptor (See Lovenberg et al Mol. Pharmacol. 1999, 1107). Screening using the human receptor is particularly important for the identification of new therapies for the treatment of human disease. Conventional binding assays for example are determined using rat synaptosomes (Garbarg et al J. Pharmacol. Exp. Ther. 1992, 263, 304), rat cortical membranes (West et al Mol. Pharmacol. 1990, 610), and guinea pig brain (Korte et al Biochem. Biophys. Res. Commun. 1990, 978). Only limited studies have been performed previously using human tissue but these allude to significant differences in the pharmacology of rodent and primate receptors (West et al Eur. J. Pharmacol. 1999, 233).
Transfection of Cells with Human Histamine Receptor
A 10 cm tissue culture dish with a confluent monolayer of SK-N-MC cells was split two days prior to transfection. Using sterile technique the media was removed and the cells were detached from the dish by the addition of trypsin. One fifth of the cells were then placed onto a new 10 cm dish. Cells were grown in a 37° C. incubator with 5% CO2 in Minimal Essential Media Eagle with 10% Fetal Bovine Serum. After two days cells were approximately 80% confluent. These were removed from the dish with trypsin and pelleted in a clinical centrifuge. The pellet was then re-suspended in 400 μL complete media and transferred to an electroporation cuvette with a 0.4 cm gap between the electrodes (Bio-Rad #165-2088). One microgram of supercoiled H3 receptor cDNA was added to the cells and mixed. The voltage for the electroporation was set at 0.25 kV, the capacitance was set at 960 μF. After electroporation the cells were diluted into 10 mL complete media and plated onto four 10 cm dishes. Because of the variability in the efficiency of electroporation, four different concentrations of cells were plated. The ratios used were; 1:20, 1:10, 1:5, with the remainder of the cells being added to the fourth dish. The cells were allowed to recover for 24 hours before adding the selection media (complete media with 600 μg/mL G418). After 10 days dishes were analyzed for surviving colonies of cells. Dishes with well isolated colonies were used. Cells from individual colonies were isolated and tested. SK-N-MC cells were used because they give efficient coupling for inhibition of adenylate cyclase. The clones that gave the most robust inhibition of adenylate cyclase in response to histamine were used for further study.
[^3H]-N-methylhistamine Binding
Cell pellets from histamine H3 receptor-expressing SK-N-MC cells were homogenized in 20 mM TrisHCl/0.5 mM EDTA. Supernatants from a 800 g spin were collected, recentrifuged at 30,000 g for 30 minutes. Pellets were re-homogenized in 50 mM Tris/5 mM EDTA (pH 7.4). Membranes were incubated with 0.8 nM [^3H]-N-methylhistamine plus/minus test compounds for 45 min at 25° C. and harvested by rapid filtration over GF/C glass fiber filters (pretreated with 0.3% polyethylenimine) followed by four washes with ice cold buffer. Filters were dried, added to 4 mL scintillation cocktail and then counted on a liquid scintillation counter. Non-specific binding was defined with 10 μM histamine. The pKi values were calculated based on a Kd of 800 pM and a ligand concentration ([L]) of 800 pM according to the formula: Ki=(IC50)/(1+([L]/(Kd))

T1 sequence (Q9Y5N1 whole entry): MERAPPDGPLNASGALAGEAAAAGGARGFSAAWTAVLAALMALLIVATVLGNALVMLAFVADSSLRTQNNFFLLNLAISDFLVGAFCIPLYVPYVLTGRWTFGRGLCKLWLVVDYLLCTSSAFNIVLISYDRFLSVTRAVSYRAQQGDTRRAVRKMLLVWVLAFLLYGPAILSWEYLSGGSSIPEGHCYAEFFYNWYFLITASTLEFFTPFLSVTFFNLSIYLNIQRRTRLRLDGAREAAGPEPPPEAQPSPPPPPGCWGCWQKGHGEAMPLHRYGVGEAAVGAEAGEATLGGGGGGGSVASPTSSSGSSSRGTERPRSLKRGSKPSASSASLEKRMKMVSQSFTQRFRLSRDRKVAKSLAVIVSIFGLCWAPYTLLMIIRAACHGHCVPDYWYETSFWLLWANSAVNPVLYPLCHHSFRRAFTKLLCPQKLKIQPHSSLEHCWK

Compound	pKi
c1cc([C@H]2CC[C@H]3CCCCN32)ccc1OCCN1CCCCC1 (racemic) [Example 16, 3-[4-(2-Piperidin-1-yl-ethoxy)-phenyl]-octahydro-indolizine]	8.05

Same assay, conditions: Table 5; [3H]-N-methylhistamine binding

Compound	pKi
c1cc(CNc2ccc([C@H]3CC[C@H]4CCCCN43)cc2)ccn1 (racemic) [Example 131]	6.29

Same assay, conditions: [3H]-N-methylhistamine 0.8 nM, membranes of H3 receptor-expressing SK-N-MC cells

Compound	pKi
CCN(c1ccc([C@H]2CC[C@H]3CCCCN32)cc1)C1CCN(S(C)(=O)=O)CC1 (racemic) [Example 104, trans-3-[4-(N-Ethyl-N-4-N-methylsufonylpiperidinylamino)phenyl]octahydroindolizine]	5.75
c1cc(Sc2ccc([C@@H]3CCC[C@@H]4CCCN43)cc2)ccn1 (racemic) [Example 26, 5-[4-(4-Pyridinylthio)phenyl]octahydroindolizine]	7.46
CS(=O)(=O)Nc1cccc(COc2ccc([C@H]3CC[C@H]4CCCCN43)cc2)c1 (racemic) [Example 83, trans-3-[4-(3-Methansulfonaminobenzyloxy)phenyl]octahydroindolizine]	6.51
CS(=O)(=O)N1CCC(Nc2ccc([C@H]3CC[C@H]4CCCCN43)cc2)CC1 (racemic) [Example 102, trans-3-[4-(N-Methylsulfonyl-4-aminopiperidine)phenyl]octahydroindolizine]	6.61
O=C(CCCCN1CCCCC1)Nc1ccc([C@@H]2CC[C@@H]3CCCCN32)cc1 (relative stereo) [Example 112, trans-3-[4-(N-5-Piperidylpentanamido)phenyl]octahydroindolizine]	8.68
c1cc([C@H]2CC[C@H]3CCCCN32)ccc1OCCC1CCCCN1 (stereo partly drawn) [Example 86, trans-3-[4-(2,2′-piperidinylethoxy)phenyl]octahydroindolizine]	7.05
c1csc(-c2ccc([C@H]3CC[C@H]4CCCCN43)cc2)c1 (racemic) [Example 50, 3-(4-Thiophen-2-yl-phenyl)-octahydro-indolizine]	6.76
CS(=O)(=O)N(c1ccc([C@@H]2CC[C@@H]3CCCCN32)cc1)S(C)(=O)=O (relative stereo) [Example 98, trans-3-(4-(bis-Methylsulfonylamino)phenyl)octahydroindolizine]	6.10
O=C(CCN1CCCCC1)Nc1ccc([C@@H]2CC[C@@H]3CCCCN32)cc1 (relative stereo) [Example 105, trans-3-[4-(N-3-Piperidinylpropanamido)phenyl]octahydroindolizine]	8.00
CN(C)c1ccc([C@@H]2CC[C@@H]3CCCCN32)cc1 (relative stereo) [Example 96, trans-3-(4-(N,N-Dimethylamino)phenyl)octahydroindolizine]	6.42
c1cc(Sc2ccc(C3CCCC4CCCCN43)cc2)ccn1 (stereo not shown) [Example 25, 4-[4-(4-Pyridylthio)phenyl]octahydoquinolizine]	6.52
CN(c1ccc([C@H]2CC[C@H]3CCCCN32)cc1)C1CCN(S(C)(=O)=O)CC1 (racemic) [Example 103]	7.01
CN(c1ccc([C@@H]2CC[C@@H]3CCCCN32)cc1)S(=O)(=O)CCN1CCCCC1 (relative stereo) [Example 121, trans-3-{4-[(2-Piperidylethyl)sulfonyl-N-methylamino]phenyl}octahydroindolizine]	7.72
CS(=O)(=O)Nc1ccc(Oc2ccc([C@H]3CC[C@H]4CCCCN43)cc2)cc1 (racemic) [Example 79, trans-3-[4-(4-Methansulfonaminophenoxy)phenyl]octahydroindolizine]	7.34
c1ccc2c(Oc3ccc([C@H]4CC[C@H]5CCCCN54)cc3)ncnc2c1 (racemic) [Example 34, 4-[4-(Octahydro-indolizin-3-yl)-phenoxy]-quinazoline]	7.04
c1cc([C@H]2CC[C@H]3CCCCN32)ccc1OCCN1CCCCC1 (racemic) [Example 16, 3-[4-(2-Piperidin-1-yl-ethoxy)-phenyl]-octahydro-indolizine]	8.04
CN(CCCN1CCCCC1)c1ccc([C@@H]2CC[C@@H]3CCCCN32)cc1 (relative stereo) [Example 110, trans-3-[4-(N-Methyl-N-3-piperidylpropylamino)phenyl]octahydroindolizine]	8.70
